According to patent publication US20080267861A1, “Myocardial Perfusion Imaging” (CV THERAPEUTICS, INC., priority 2007, published 2008):

Legend:
[1] = test system: patients requiring pharmacologic MPI; assay: Adverse events during MPI protocols; assay type: in vivo, human; details: for frequency of dyspnea: 39 crossover patients
Experimental: (§1) In this multicenter study, subjects requiring pharmacologic MPI based on clinical criteria received adenosine infusion (Astellas Pharma, Inc.), 140 mcg/kg/min over 6 min in the supine position (AdenoSup), following enrollment and were then randomized (2:1) in a double-blind manner to a novel protocol (RegEx) consisting of 4 min of sub-maximal exercise (1.7 mph at 0% grade) with bolus intravenous injection of 400 mcg Regadenoson at 1.5 min and ^99mTechnetium-Sestamibi at 2 min or matching placebos (PlcEx).
(§2) The primary objective was to assess the overall safety of Regadenoson in patients undergoing low-level stress by comparing hemodynamic, cardiac rhythm and adverse effects of the 3 protocols. In addition, patient acceptance was determined by comparing patient comfort and test protocol preference using questionnaires. Three blinded expert readers independently interpreted randomly presented perfusion scans at a nuclear core lab (Services NucMed, Montreal, Canada). Image quality was compared between AdenoSup and RegEx by computation of heart-to-liver and heart-to-gut ratios and the readers' visual assessment of overall image quality and image quality with respect to subdiaphragmatic interference specifically. A 17-segment MPI model was used by the core lab readers, to compare the extent of the perfusion defect between RegEx and AdenoSup quantitatively and also qualitatively with side-by-side visual comparison. Patients were required to abstain from methylxanthine-containing foods and beverages for 12 hours prior to receiving study drug and adenosine. The protocol was approved by an institutional review board and all patients provided written informed consent.
(§3) Changes in blood pressure, heart rate, and ECG intervals were computed over time and compared (Regadenoson vs. placebo) using repeated measures, mixed-model ANOVA. The incidence of symptomatic hypotension, systolic blood pressure decreases of >20 mm Hg, ECG abnormalities, and severe or related adverse events was compared using Fisher's exact test. The quality of nuclear MPI scans following regadenoson and low-level exercise was compared to adenosine-supine MPI scans of the same subject using the sign test. Radiotracer target-to-background ratios were computed and compared between the two imaging regimens using the Wilcoxon signed ranks test. Semi-quantitative scoring of perfusion defects (Summed Stress Score (SSS), Summed Difference Score (SDS), etc.) was conducted using a 17-segment polar map and the quality of agreement between the two imaging regimens was assessed using […]

[2] = test system: patients requiring pharmacologic MPI; assay: SPECT myocardial perfusion imaging: heart-to-background ratios, image quality, perfusion defects; assay type: in vivo, human; details: for heart-to-gut ratio, mean (SD) / heart-to-liver ratio, mean (SD) / heart-to-liver+gut ratio, mean (SD): 39 patients undergoing both scans, 99mTc-Sestamibi
Experimental: as §1
Prior to randomization, patients were stratified based on the presence of reversible perfusion defects, defined as a two or more segments with a stress score >rest score and a stress score >2 on a 5-category scale, as interpreted by a board-certified nuclear cardiologist at each site. The 5-category scale, used both for stratifying patients and for evaluation of perfusion defects on study, was as follows: 0=normal; 1=mild reduction in tracer uptake, not definitely abnormal; 2=moderate reduction in uptake, definitely abnormal; 3=severe reduction in uptake; 4=absent uptake.
as §2
Nuclear imaging was performed using either a dual isotope protocol or a two-day ^99mTechnetium-Sestainibi protocol at the investigators' discretion. However, men with body weight >220 pounds and body mass index >30 kg/m2 and women with body weight >200 pounds and body mass index >30 kg/m2 were to undergo the two day protocol. The single photon emission computed tomography (SPECT) imaging was standardized for image acquisition and transmittal in accordance with the American Society of Nuclear Cardiology guidelines. The protocol required an extra ˜8 mSv radiation to the patients in the study arm, and none to the patients in the control (placebo exercise) arm.
The dual isotope protocol was performed over 2 separate days. On the first day, patients were to have a rest scan with ^201Thallium followed by a ^99mTechnetium-Sestamibi adenosine-supine MPI; on a subsequent day, patients underwent a ^99mTechnetium-Sestamibi study drug (i.e., regadenoson or placebo) sub-maximal treadmill exercise MPI.
The multi-day ^99mTechnetium-Sestamibi was performed over 3 days. On the first day, patients were to have a ^99mTechnetium-Sestamibi adenosine supine MPI or ^99mTechnetium-Sestamibi rest scan. […] The second and third days were not necessarily consecutive to the first day.
The stress MPI scans were to be performed 60±10 minutes after the start of adenosine or study drug.
Changes in blood pressure, heart rate, and ECG intervals were computed over time and compared (Regadenoson vs. placebo) using repeated measures, mixed-model ANOVA. The incidence of symptomatic hypotension, systolic blood pressure decreases of >20 mm Hg, ECG abnormalities, and severe or related adverse events was compared using Fisher's exact test. […]

[3] = test system: patients requiring pharmacologic MPI; assay: Hemodynamic, cardiac rhythm and ECG effects of MPI protocols; assay type: in vivo, human; details: for effects on ECG intervals: AdenoSup, RegEx and PlcEx compared; for patients with arrhythmias following both AdenoSup and RegEx / patients with arrhythmias following this protocol only: adverse events or ECG findings; for occurrences of 2nd degree or higher AV block: in vivo
Experimental: as §1, §2, §3

[4] = test system: patients requiring pharmacologic MPI; assay: Patient comfort and test protocol preference questionnaires; assay type: in vivo, human; details: for tolerability: 400 mcg bolus during low-level exercise
Experimental: as §2
Cohen's kappa for the categories 0-3, 4-7, 8-11, and >12 (SSS) and 0-6, 7-13, and >14 (SDS). The number of segments with reversible perfusion defects was defined as the median number across the three readers. Subject comfort and tolerability were assessed using a 4-point scale and the regimens compared using a Cochran-Mantel-Haenszel test of equality of mean scores. Data are expressed as mean (SD) unless otherwise specified. Statistical analyses were conducted using SAS version 9.1. Statistical significance was defined as a p-value of <0.05.

[5] = relative to adenosine; cited from earlier work
[6] = AdenoSup, later randomized to RegEx (n = 39)

Nc1ncnc2c1ncn2[C@@H]1O[C@H](CO)[C@@H](O)[C@H]1O [Adenosine, adenosine, reference compound]
frequency of dyspnea [1]: 41% | patients with at least one adverse event ([1]; 62 patients dosed): 95% | Adverse event: Stomach Discomfort, patients ([1]; AdenoSup, later randomized to PlcEx (n = 21)): 0 | Adverse event: Dizziness, patients [1, 6]: 0 | Adverse event: Pain in Jaw, patients [1, 6]: 0 | patients with severe adverse events ([1]; AdenoSup: of 60 patients): 4 | patients with protocol-defined symptomatic hypotension ([1]; in vivo): One | patients with severe adverse events ([1]; of 60 patients): 6.7% | heart-to-gut ratio, mean (SD) [2]: 0.97 (0.34) | heart-to-liver ratio, mean (SD) [2]: 0.65 (0.26) | heart-to-liver+gut ratio, mean (SD) [2]: 0.72 (0.18) | patients in whom reversible perfusion defects were detected ([2]; of 39 patients): 51.3% | patients in whom reversible perfusion defects were detected ([2]; out of 39 patients): 20 | effects on ECG intervals [3]: similar | patients with arrhythmias following both AdenoSup and RegEx [3]: 2 | patients with arrhythmias following this protocol only [3]: 3 | occurrences of 2nd degree or higher AV block [3]: one | peak heart rate, increase from resting baseline ([3]; mean (SE)): +21.0 (SE 2.5) bpm

CNC(=O)c1cnn(-c2nc(N)c3ncn([C@@H]4O[C@H](CO)[C@@H](O)[C@H]4O)c3n2)c1 [Regadenoson, (1-{9-[(4S,2R,3R,5R)-3,4-dihydroxy-5-(hydroxymethyl)oxolan-2-yl]-6-aminopurin-2-yl}pyrazol-4-yl)-N-methylcarboxamide]
frequency of dyspnea [1]: 54% | patients with severe adverse events ([1]; AdenoSup: of 60 patients): no patient | Adverse event: Chest Pain, patients ([1]; RegEx (n = 39)): 0 | Adverse event: Pain in Jaw, patients ([1]; RegEx (n = 39)): 0 | Adverse event: Throat tightness, patients ([1]; RegEx (n = 39)): 0 | patients with at least one adverse event ([1]; n=39): 77% | patients reporting being very uncomfortable or extremely uncomfortable ([4]; 4-point scale): No patients | patients reporting the test as "a little uncomfortable" ([4]; 4-point scale): 41% | patients reporting the test as "comfortable" ([4]; 4-point scale): 59% | tolerability [4]: feasible and well tolerated | tolerability ([4]; listed as RegEx): well tolerated | heart-to-gut ratio, mean (SD) [2]: 1.1 (0.36) | heart-to-liver ratio, mean (SD) [2]: 0.85 (0.34) | heart-to-liver+gut ratio, mean (SD) [2]: 0.93 (0.26) | image quality with respect to subdiaphragmatic interference, side-by-side RegEx vs AdenoSup ([2]; 39 patients, blinded readers): significantly better | overall image quality, side-by-side comparison RegEx vs AdenoSup ([2]; 39 patients, blinded readers, listed as RegEx): significantly better overall image quality | patients in whom reversible perfusion defects were detected ([2]; of 39 patients): 64.1% | patients in whom reversible perfusion defects were detected ([2]; out of 39 patients): 25 | heart rate over the pre-exercise baseline ([3]; 24 minutes following start of exercise, mean (SE)): +4.6 (SE 1.5) bpm | effects on ECG intervals [3]: similar | peak heart rate greater than following AdenoSup ([3]; RegEx vs AdenoSup): 21 bpm | peak heart rate greater than following PlcEx ([3]; RegEx vs PlcEx): 13 bpm | systolic blood pressure analyses (change in mean SBP, nadir SBP, decline >20 mm Hg) ([3]; RegEx vs PlcEx and vs AdenoSup): no important differences | patients with arrhythmias following both AdenoSup and RegEx [3]: 2 | patients with arrhythmias following this protocol only [3]: 1 | heart rate higher than the pre-exercise baseline ([3]; by 24 minutes following the study drug bolus): < 5 bpm | occurrences of 2nd degree or higher AV block [3]: No occurrences | peak heart rate, increase from resting baseline ([3]; mean (SE)): 41.9 (SE 2.7) bpm | increase of mean maximum heart rate over sub-maximal exercise with placebo ([3]; with sub-maximal exercise): 16.5 beats per minute | mean maximum heart rate increase ([3]; with sub-maximal exercise (Discussion)): +40.2 (1.5) bpm

OCCN(CCO)c1nc(N2CCCCC2)c2nc(N(CCO)CCO)nc(N3CCCCC3)c2n1 [dipyridamole]
half-life [5]: longer than that of adenosine
